Here are results for 19 compounds from ChEMBL document CHEMBL1201862, “PubChem BioAssay data set” (2004).

Series [1] deals with T1, Heat shock factor protein 1 (Mus musculus, UniProt P38532).
T1 sequence (P38532 whole entry): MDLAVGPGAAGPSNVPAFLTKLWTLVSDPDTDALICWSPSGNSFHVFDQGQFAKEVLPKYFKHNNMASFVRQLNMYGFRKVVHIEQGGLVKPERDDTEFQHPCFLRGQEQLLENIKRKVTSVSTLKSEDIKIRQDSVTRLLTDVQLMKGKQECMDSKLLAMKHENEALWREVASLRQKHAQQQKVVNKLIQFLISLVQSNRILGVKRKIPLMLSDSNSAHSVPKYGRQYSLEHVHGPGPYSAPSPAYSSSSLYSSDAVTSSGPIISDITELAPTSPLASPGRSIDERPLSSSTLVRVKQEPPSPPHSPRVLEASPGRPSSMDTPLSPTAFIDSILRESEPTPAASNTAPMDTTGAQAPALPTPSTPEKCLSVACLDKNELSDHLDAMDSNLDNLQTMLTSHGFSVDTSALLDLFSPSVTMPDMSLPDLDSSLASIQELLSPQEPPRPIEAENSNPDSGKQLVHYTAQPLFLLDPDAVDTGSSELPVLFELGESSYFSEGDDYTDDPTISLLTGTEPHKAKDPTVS
The series can be described thus: enhancement of HSF1-driven luciferase signal – cell-based, NIH3T3, luminescence, dose retest, confirmation (AID 435004).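 Further: stress induced by proteasome inhibitor MG132 added 30 min after compound; luciferase reporter driven by HSF1 response element in NIH3T3 cells; actives raise luminescence as potentiators of the MG132 stress response.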 The class given is functional.

The target in the next series is T2, Cytochrome P450 1A2 (Homo sapiens, UniProt P05177).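 Further: PubChem cytochrome P450 panel assay, CYP1A2 panel member.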
T2 sequence (P05177 whole entry): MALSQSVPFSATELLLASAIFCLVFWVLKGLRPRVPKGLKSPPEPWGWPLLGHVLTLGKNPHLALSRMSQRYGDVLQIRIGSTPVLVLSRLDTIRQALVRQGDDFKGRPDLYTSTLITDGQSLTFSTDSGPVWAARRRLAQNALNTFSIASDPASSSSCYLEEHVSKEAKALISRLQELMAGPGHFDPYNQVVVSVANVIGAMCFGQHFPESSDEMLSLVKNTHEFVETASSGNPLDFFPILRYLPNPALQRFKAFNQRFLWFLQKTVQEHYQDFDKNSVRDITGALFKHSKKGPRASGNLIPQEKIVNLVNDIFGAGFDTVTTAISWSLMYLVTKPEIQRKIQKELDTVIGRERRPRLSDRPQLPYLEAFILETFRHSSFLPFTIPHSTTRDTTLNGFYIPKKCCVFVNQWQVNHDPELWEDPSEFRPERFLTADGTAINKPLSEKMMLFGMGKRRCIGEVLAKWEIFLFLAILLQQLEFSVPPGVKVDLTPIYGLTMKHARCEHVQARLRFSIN

The target in another series is Cytochrome P450 3A4 (Homo sapiens, UniProt P08684).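 Further: CYP3A4 tested as one member of a cytochrome P450 panel screen.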
The next series deals with Cytochrome P450 2C19 (Homo sapiens, UniProt P33261). The series can be described thus: Cytochrome panel assay with activity outcomes. Panel member name: p450-cyp2c19 Compounds with AC50 equal or less than 10 uM are considered active. The class given is functional. The note with it: read-out: AC50.
Series [2] concerns the target T3, Fatty acid synthase (Homo sapiens, UniProt P49327). The series can be described thus: inhibition of human FAS-TE enzyme activity – biochemical, endpoint fluorescence intensity, uHTS hits, dose response (AID 624327).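 Further: fluorescence from hydrolysis of an O-methyl fluorescein acyl ester substrate by the enzyme.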 The series is classed as functional.
The target of series [3] is T3, Fatty acid synthase. The series can be described thus: inhibition of human FAS-TE enzyme activity – biochemical, kinetic fluorescence intensity, dose response (AID 624326).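 Further: rate of fluorescence rise from hydrolysis of a fluorogenic O-methyl fluorescein ester substrate.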 The class given is functional.
Another series deals with Cytochrome P450 2C9 (Homo sapiens, UniProt P11712).
Series [4] is described as follows: non-specific 3'UTR reporter inhibition in Clone20-Shn3RL – cell-based, Renilla luciferase, cherry-picked, counter-screen for Shn3 inhibitor project, dose response (AID 624133). The series is classed as functional.
The test system of a further series is INS1. The series can be described thus: INS-1E survival protection against cytokine death – cell-based, luminescence, retest, dose response (AID 449756).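 Further: cell death triggered by IL-1 beta plus TNF-alpha plus IFN-gamma mixture; protective hits raise ATP signal compared with cytokine alone wells.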 The conditions noted are these: Rattus norvegicus. The class given is functional.
A short description of series [5]: loss of viability in HepG2 cells – cell-based, CellTiter-Glo, cherry-picked, cytotoxicity control for Shn3 inhibitor project, dose response (AID 624134). The series is classed as functional. (In general: ATP-based viability assays read luminescence as a measure of living cells.)
The nature of series [6]: reduction of Shn3 3'UTR-driven luciferase in osteoblasts – cell-based, Clone20 osteoblasts, firefly luciferase, cherry-picked, dose response (AID 624132).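 Further: firefly luciferase luminescence from reporter carrying the Shn3 3'UTR in osteoblasts.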 The series is classed as functional.
For series [7], the target named is T1, Heat shock factor protein 1. The series can be described thus: decrease of HSF1-responsive luciferase luminescence – cell-based, NIH3T3, dose retest, confirmation (AID 2382).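 Further: NIH3T3 fibroblasts with HSF1-driven luciferase reporter stressed by proteasome inhibitor MG132; luminescence from HSF1-driven luciferase expression after 8 hours of MG132 stress.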 The class given is functional.
Series [8] is described as follows: NIH3T3 cell viability loss – ATP luminescence, mouse fibroblasts, counter-screen, dose response (AID 2010).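 Further: cells exposed to compound for about 90 hours before reading.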 The class given is functional, cell-based. For orientation: The purpose of a counterscreen is to sort out artefacts and off-target activity.
Series [9] in a line: Trypanosoma cruzi growth suppression in host cells – NIH3T3 host cells, beta-gal luminescence, confirmation (AID 2044).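 Further: intracellular parasites grown in NIH/3T3 mouse fibroblasts as host cells; luminescent beta-galactosidase reporter signal from transgenic T. cruzi replicating inside host cells; inhibitors lower the luminescence signal.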 The series is classed as functional, cell-based.
Series [10] in a line: microbe, parasite or virus in culture. The class given is functional. The note with it: Mycobacterium tuberculosis.
Series [11] is described as follows: Vero E6 cell cytotoxicity, dose response, cytotoxicity control for non-replicating M. tuberculosis project, secondary assay (AID 492998). The conditions noted are these: Vero C1008. The class given is functional, VeroE6.
Series [12] in a line: THP-1 cell cytotoxicity, dose response, cytotoxicity control for non-replicating M. tuberculosis project (AID 489025). The class given is functional.
A further series can be described thus: cells. The class given is functional.
The next series relates to H9c2. The experiment in a line: cells. The series is classed as functional, cell-based. The note with it: Rattus norvegicus, H9c2, Myocardium.
The target in series [13] is T4, Zinc finger protein mex-5 (Caenorhabditis elegans, UniProt Q9XUB2).
T4 sequence (Q9XUB2 whole entry): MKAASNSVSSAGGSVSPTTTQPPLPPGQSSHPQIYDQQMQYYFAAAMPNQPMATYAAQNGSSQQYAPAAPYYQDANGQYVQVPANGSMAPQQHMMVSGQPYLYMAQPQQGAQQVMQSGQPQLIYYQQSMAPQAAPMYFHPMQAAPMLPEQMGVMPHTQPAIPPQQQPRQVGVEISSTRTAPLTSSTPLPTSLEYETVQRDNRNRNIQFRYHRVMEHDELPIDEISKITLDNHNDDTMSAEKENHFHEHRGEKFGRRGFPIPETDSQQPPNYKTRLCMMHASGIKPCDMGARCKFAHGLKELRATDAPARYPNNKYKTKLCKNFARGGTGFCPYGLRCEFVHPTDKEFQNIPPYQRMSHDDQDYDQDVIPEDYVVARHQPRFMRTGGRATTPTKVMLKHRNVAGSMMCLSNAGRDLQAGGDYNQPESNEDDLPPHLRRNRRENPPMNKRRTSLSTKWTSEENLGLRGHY
The experiment in a line: potency of MEX-5 RNA-binding blockers – biochemical, C. elegans, fluorescence polarization, dose response (AID 1960). For orientation: Polarisation of emitted light reports the rotation of a fluorescent probe.

Series [14] addresses T5, RNA-binding protein pos-1 (Caenorhabditis elegans, UniProt G5EF15).
T5 sequence (G5EF15 whole entry): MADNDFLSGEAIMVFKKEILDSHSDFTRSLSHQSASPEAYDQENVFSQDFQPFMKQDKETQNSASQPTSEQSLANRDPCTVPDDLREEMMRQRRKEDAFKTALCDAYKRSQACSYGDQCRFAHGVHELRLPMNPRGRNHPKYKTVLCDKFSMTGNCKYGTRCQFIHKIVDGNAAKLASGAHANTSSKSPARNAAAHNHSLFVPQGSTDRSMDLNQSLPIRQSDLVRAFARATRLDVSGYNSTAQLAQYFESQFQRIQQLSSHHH
The experiment in a line: disruptors of C. elegans POS-1 RNA interaction – biochemical, fluorescence polarization, dose response (AID 1964).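 Further: purified POS-1 fused to maltose binding protein made in E. coli; potency of compounds blocking POS-1 binding to fluorescent RNA.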

The nature of series [15]: HIV-1 AD8 envelope cell-cell fusion blockers – cherry-pick, dose response (AID 652062).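 Further: luciferase signal from cell-cell fusion driven by HIV-1 clade B AD8 Env; potency is for inhibitors of fusion seen as a drop in luminescence.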 The series is classed as functional, cell-based.

Active and inactive are the calls of the source. Bounds are passed on as bounds.

Chain of Cytochrome P450 3A4 (P08684 whole entry): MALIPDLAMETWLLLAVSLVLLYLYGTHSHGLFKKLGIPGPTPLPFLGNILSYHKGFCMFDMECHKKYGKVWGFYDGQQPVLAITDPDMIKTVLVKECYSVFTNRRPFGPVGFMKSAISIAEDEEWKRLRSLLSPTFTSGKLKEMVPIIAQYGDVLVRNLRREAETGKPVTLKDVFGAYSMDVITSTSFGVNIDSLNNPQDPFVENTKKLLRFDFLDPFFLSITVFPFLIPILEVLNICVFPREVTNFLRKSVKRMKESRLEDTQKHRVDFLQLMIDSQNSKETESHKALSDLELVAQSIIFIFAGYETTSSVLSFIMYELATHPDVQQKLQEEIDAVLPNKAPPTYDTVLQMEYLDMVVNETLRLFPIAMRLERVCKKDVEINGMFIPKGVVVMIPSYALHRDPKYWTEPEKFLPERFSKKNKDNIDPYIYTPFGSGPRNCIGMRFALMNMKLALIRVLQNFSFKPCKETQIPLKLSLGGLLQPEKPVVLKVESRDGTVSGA
T3 sequence (P49327 whole entry): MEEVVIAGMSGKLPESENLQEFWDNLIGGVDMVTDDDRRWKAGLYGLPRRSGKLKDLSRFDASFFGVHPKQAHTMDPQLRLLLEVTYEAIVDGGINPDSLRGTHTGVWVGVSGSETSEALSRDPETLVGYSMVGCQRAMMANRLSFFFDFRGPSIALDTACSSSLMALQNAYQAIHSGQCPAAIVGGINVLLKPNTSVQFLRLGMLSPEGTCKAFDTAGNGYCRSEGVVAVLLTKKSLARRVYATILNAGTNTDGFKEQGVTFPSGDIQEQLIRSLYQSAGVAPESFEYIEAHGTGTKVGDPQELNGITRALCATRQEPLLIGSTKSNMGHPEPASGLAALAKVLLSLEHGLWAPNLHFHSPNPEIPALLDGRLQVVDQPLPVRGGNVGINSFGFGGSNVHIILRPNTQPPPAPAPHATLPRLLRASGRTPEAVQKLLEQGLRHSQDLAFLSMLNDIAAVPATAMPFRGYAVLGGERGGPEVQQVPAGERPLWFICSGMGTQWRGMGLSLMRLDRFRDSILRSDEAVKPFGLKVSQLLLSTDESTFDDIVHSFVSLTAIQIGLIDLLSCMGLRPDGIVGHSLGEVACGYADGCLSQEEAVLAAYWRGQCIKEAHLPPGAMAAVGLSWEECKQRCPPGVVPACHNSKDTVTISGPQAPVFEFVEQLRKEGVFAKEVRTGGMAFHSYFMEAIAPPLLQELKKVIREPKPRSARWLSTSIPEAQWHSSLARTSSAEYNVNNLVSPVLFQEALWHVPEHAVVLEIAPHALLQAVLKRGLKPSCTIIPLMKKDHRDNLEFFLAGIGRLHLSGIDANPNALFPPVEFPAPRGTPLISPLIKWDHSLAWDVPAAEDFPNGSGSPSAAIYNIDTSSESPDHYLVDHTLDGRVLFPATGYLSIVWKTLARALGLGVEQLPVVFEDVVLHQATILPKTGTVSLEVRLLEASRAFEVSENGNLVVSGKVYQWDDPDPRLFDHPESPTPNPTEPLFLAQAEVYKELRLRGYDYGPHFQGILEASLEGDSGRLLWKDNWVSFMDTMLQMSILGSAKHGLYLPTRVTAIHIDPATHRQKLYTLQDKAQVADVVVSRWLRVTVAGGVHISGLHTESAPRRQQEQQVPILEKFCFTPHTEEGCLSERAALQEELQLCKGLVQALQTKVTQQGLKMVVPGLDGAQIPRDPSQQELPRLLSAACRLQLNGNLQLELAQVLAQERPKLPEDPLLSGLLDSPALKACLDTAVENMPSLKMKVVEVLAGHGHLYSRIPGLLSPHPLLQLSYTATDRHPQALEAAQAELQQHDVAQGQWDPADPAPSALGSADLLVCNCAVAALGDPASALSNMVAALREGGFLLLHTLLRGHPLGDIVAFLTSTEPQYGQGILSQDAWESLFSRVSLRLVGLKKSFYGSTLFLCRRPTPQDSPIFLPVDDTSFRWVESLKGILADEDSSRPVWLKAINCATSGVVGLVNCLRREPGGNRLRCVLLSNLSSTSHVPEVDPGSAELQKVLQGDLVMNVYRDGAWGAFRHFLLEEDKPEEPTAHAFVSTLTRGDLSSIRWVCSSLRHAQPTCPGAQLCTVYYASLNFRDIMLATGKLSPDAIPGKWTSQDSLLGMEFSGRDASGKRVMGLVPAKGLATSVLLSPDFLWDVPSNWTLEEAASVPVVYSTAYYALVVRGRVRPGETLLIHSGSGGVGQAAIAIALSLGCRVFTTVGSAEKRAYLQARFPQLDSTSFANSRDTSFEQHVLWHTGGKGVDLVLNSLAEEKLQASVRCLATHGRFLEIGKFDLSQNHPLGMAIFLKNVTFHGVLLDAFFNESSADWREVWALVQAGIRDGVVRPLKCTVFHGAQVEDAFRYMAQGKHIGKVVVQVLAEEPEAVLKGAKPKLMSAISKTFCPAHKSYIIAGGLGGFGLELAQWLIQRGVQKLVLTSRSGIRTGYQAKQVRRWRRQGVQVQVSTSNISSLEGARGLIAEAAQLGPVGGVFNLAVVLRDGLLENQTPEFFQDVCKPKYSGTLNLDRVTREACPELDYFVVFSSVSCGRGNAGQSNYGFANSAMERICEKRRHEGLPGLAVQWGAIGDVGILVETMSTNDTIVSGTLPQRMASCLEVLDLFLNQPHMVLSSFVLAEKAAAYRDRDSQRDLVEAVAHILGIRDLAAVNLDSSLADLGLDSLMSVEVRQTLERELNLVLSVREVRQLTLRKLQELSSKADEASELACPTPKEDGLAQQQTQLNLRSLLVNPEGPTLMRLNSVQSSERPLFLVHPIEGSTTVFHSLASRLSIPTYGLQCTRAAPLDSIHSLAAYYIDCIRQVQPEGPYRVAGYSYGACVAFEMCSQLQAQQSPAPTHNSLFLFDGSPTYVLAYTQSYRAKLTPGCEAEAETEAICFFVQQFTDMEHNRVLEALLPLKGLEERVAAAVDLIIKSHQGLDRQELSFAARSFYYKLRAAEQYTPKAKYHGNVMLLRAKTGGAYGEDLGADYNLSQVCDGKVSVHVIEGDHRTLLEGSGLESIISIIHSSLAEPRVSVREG
Chain of Cytochrome P450 2C19 (P33261 whole entry): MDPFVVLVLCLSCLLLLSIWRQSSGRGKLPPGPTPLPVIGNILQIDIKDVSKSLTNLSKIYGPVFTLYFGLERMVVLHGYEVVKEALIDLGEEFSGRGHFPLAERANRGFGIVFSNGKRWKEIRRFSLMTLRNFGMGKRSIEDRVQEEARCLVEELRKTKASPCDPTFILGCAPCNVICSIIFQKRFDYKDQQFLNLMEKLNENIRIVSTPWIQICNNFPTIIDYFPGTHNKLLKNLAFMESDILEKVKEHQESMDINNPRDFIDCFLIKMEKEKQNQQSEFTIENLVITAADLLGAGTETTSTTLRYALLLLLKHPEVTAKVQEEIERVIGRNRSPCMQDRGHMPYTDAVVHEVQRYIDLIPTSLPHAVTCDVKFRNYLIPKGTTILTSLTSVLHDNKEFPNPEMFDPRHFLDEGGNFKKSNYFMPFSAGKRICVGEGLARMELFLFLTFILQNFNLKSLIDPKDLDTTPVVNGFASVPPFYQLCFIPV
Chain of Cytochrome P450 2C9 (P11712 whole entry): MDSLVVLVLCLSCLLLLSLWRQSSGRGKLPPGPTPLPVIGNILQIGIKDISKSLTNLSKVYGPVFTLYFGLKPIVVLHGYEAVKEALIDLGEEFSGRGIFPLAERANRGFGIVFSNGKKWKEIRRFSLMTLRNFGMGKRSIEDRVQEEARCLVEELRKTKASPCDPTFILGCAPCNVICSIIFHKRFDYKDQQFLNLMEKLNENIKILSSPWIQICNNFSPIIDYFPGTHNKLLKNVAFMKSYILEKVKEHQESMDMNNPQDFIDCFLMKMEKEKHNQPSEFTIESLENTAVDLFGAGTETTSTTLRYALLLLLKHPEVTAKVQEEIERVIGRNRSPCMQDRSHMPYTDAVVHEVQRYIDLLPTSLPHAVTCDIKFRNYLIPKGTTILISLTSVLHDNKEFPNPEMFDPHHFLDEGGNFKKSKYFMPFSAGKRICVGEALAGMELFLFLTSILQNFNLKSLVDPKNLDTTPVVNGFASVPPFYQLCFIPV

`CCOc1ccc2nc(COC(=O)c3cccc([N+](=O)[O-])c3)c(C(C)=O)[n+]([O-])c2c1`: in series [1], the EC50 was > 260 µM (inactive).
Turning to `O=C(Nc1ccccc1)N1CCC2(CC1)CCN(C(=O)c1ccco1)CC2`, the AC50 on Cytochrome P450 1A2 was 10 µM (inconclusive); on Cytochrome P450 3A4 it was “inconclusive”; at Cytochrome P450 2C19, 39.8 µM (inconclusive).
For the compound `O=C(Cn1cc(C(=O)C2CC2)c2ccccc21)NCc1ccc2c(c1)OCO2`, the IC50 was 14.3 µM (active) at Fatty acid synthase [2] and 8.36 µM (active) at Fatty acid synthase [3].
On to `COc1ccc(Nc2nc(N3CCCCC3)c3ccccc3n2)cc1`, for which the AC50 result at Cytochrome P450 3A4 is “inconclusive”; on Cytochrome P450 2C9, 17.8 µM (inconclusive); in series [4] it was 6.45 µM (active); in the series on INS1 it was 4.63 µM (active); in series [5], 36.5 µM (active); in [6], 2.11 µM (active).
Consider `O=C(NC1CCCCC1)c1cnn2c(C(F)(F)F)cc(-c3ccco3)nc12`, for which the EC50 in [1] is > 260 µM (inactive).
Turning to `COc1ccc([C@@H]2[C@@H]3C(=O)N(C(C)(C)C)C(=O)[C@@H]3[C@]3(Cc4ccccc4)C(=O)N(c4cccc(Br)c4)C(=O)N23)cc1`, the IC50 was 21.5 µM (inactive) on Fatty acid synthase [2] and 13.7 µM (active) at Fatty acid synthase [3].
In the case of `c1ccn(-c2ccc(N3CCOCC3)cc2)c1`, the EC50 in [7] is given as > 195 µM (not active). For the same compound, the AC50 entry at Cytochrome P450 3A4 is “inconclusive”.
With `O=C(Oc1ccccc1)N1CCC2(CC1)CCN(c1ccccn1)CC2`, the values for the concentration at half-maximal activity (AC50) result on Cytochrome P450 3A4, at Cytochrome P450 2C9 and at Cytochrome P450 2C19 were “inconclusive”, 31.6 µM (inconclusive) and 20 µM (inconclusive), respectively.
As to `Cc1c(Cl)cccc1NC(=O)CN1CCC(C(O)(c2ccccc2)c2ccccc2)CC1`, the EC50 in series [8] was > 30 µM (not active); in series [9], 2.33 µM (active). Also, the half-maximal activity concentration (AC50) result at Cytochrome P450 3A4 was “inconclusive”. Also, the CC50 in [10] is > 40 µM (active).
Consider `O=[N+]([O-])c1cccc(NC(S)=NCCc2ccccc2)c1`, for which the results for the 50% inhibitory concentration (IC50) at Fatty acid synthase [2] and on Fatty acid synthase [3] were 10.1 µM (active) and 9.04 µM (active), respectively.
`Cc1cc(Br)ccc1OCC(=O)NNC(=O)c1cnccn1`: the CC50 in [11] was 17.8 µM (active); in series [12] it was > 40 µM (active). The IC50 in the series “cells” was 8.2 µM (active).
On to `O=C(COc1ccc([N+](=O)[O-])cc1)N1CCc2ccccc2C1`, for which the concentration for half-maximal inhibition (IC50) on Fatty acid synthase [2] is 6.92 µM (active); at Fatty acid synthase [3], 3.46 µM (active).
With `CNc1nc(SC(C)C(=O)Nc2ccc(Cl)c(Cl)c2)nc(N2CCOCC2)n1` (configuration not stated), the EC50 in series [1] was > 260 µM (inactive).
The same measure, in the same setting: as for `COCOc1cc(O)c(C(=O)/C=C/c2ccccc2)c(OCOC)c1`, the figure is 22.1 µM (active).
Consider `Cc1nc2ncnn2c(C)c1CCC(=O)N1CCN(C(=O)c2ccco2)CC1`, for which the half-maximal activity concentration (AC50) result at Cytochrome P450 3A4 was “inconclusive”.
Turning to `CC(C)(C)NC(=O)CC1C[C@H](C(=O)N2CCOCC2)[C@@]2(CCC3CCCC3)c3[nH]c4ccccc4c3CCN2C1=O` (some centres not stated), the IC50 at Fatty acid synthase [2] was 2.31 µM (active); on Fatty acid synthase [3] it was 4.15 µM (active).
For `O=C(O)/C(=C/c1ccc(Cl)c([N+](=O)[O-])c1)c1ccc(S(=O)(=O)N2CCCCC2)s1`, the IC50 on Fatty acid synthase [2] is 15.4 µM (active); on Fatty acid synthase [3] it was 12.6 µM (active).
On to `Nc1c(C(=O)N/N=C/c2cccnc2)oc2nc(-c3ccccc3)cc(-c3ccco3)c12`, for which the IC50 in the series on H9c2 is > 79 µM (inactive). Further, the 50% effective concentration (EC50) in series [13] and in series [14] was > 300 µM (not active) throughout.
As to `O=C(C[C@@H]1C[C@@H]2c3cc(NS(=O)(=O)c4ccc(F)cc4)ccc3O[C@@H]2[C@H](CO)O1)NCc1ccccc1F`, the AC50 in [15] is 1.75 µM (active).

What is called EC50 is the midpoint of the concentration-response curve. The AC50 is the concentration giving half of the maximal activity seen. As usually defined, the IC50 is the midpoint of a concentration-inhibition curve.
